# Tests used:
# Experiment in all cases: cells
# D-502MG = type: functional, cell-based; details: Homo sapiens
# Description: SANGER: Inhibition of human D-502MG cell growth in a cell viability assay.
# DJM-1 = type: functional, cell-based; details: Homo sapiens;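 further: growth inhibition of human DJM-1 cells, read out by a cell viability assay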
# Description: SANGER: Inhibition of human DJM-1 cell growth in a cell viability assay.
# EKVX = type: functional, cell-based; details: Homo sapiens;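 further: growth inhibition of human EKVX cells, read out with a cell viability assay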
# Description: SANGER: Inhibition of human EKVX cell growth in a cell viability assay.
# ES4 = type: functional, cell-based; details: Homo sapiens;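 further: growth inhibition of human ES4 cells, read out by a cell viability assay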
# Description: SANGER: Inhibition of human ES4 cell growth in a cell viability assay.
# ES5 = type: functional, cell-based; details: Homo sapiens;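 further: growth inhibition of human ES5 cells, read out by a cell viability assay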
# Description: SANGER: Inhibition of human ES5 cell growth in a cell viability assay.
# ES6 = type: functional, cell-based; details: Homo sapiens;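 further: growth inhibition of human ES6 cells, read out with a cell viability assay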
# Description: SANGER: Inhibition of human ES6 cell growth in a cell viability assay.
# EW-13 = type: functional, cell-based; details: Homo sapiens;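 further: growth inhibition of EW-13 cells, read out with a cell viability assay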
# Description: SANGER: Inhibition of human EW-13 cell growth in a cell viability assay.
# GI-1 = type: functional, cell-based; details: Homo sapiens;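 further: growth inhibition of human GI-1 cells, measured with a cell viability readout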
# Description: SANGER: Inhibition of human GI-1 cell growth in a cell viability assay.
# HAL-01 = type: functional, cell-based; details: Homo sapiens;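 further: growth inhibition of human HAL-01 cells, read out with a cell viability assay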
# Description: SANGER: Inhibition of human HAL-01 cell growth in a cell viability assay.
# HCC1187 = type: functional, cell-based; details: Homo sapiens;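 further: growth inhibition of HCC1187 cells, read out with a cell viability assay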
# Description: SANGER: Inhibition of human HCC1187 cell growth in a cell viability assay.
# HCC2218 = type: functional, cell-based; details: Homo sapiens;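 further: cell viability assay read-out, with IC50 given as the concentration that inhibits growth of the cell line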
# Description: SANGER: Inhibition of human HCC2218 cell growth in a cell viability assay.
# HDLM-2 = type: functional, cell-based; details: Homo sapiens;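 further: cell viability assay measuring suppression of HDLM-2 proliferation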
# Description: SANGER: Inhibition of human HDLM-2 cell growth in a cell viability assay.
# HOP-62 = type: functional, cell-based; details: Homo sapiens;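 further: cell growth inhibition determined with a viability assay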
# Description: SANGER: Inhibition of human HOP-62 cell growth in a cell viability assay.
# HOS = type: functional, cell-based; details: Homo sapiens;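 further: growth inhibition of human HOS cells, read out with a cell viability assay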
# Description: SANGER: Inhibition of human HOS cell growth in a cell viability assay.
# JVM-2 = type: functional, cell-based; details: Homo sapiens;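 further: growth inhibition of JVM-2 cells determined by a cell viability assay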
# Description: SANGER: Inhibition of human JVM-2 cell growth in a cell viability assay.
# JVM-3 = type: functional, cell-based; details: Homo sapiens;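 further: growth inhibition of human JVM-3 cells, read out with a cell viability assay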
# Description: SANGER: Inhibition of human JVM-3 cell growth in a cell viability assay.
# KARPAS-299 = type: functional, cell-based; details: Homo sapiens
# Description: SANGER: Inhibition of human KARPAS-299 cell growth in a cell viability assay.
# KARPAS-45 = type: functional, cell-based; details: Homo sapiens;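 further: inhibition of cell line growth, read out through a viability assay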
# Description: SANGER: Inhibition of human KARPAS-45 cell growth in a cell viability assay.
# KG-1 = type: functional, cell-based; details: Homo sapiens;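 further: growth inhibition of KG-1 cells, read out by a cell viability assay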
# Description: SANGER: Inhibition of human KG-1 cell growth in a cell viability assay.
# KM-H2 = type: functional, cell-based; details: Homo sapiens;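 further: growth inhibition of KM-H2 cells, read out by a cell viability assay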
# Description: SANGER: Inhibition of human KM-H2 cell growth in a cell viability assay.
# KNS-81-FD = type: functional, cell-based; details: Homo sapiens;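 further: growth inhibition of KNS-81-FD cells, read out with a cell viability assay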
# Description: SANGER: Inhibition of human KNS-81-FD cell growth in a cell viability assay.
# LB1047-RCC = type: functional, cell-based; details: Homo sapiens;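 further: inhibition of cell growth, determined with a cell viability assay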
# Description: SANGER: Inhibition of human LB1047-RCC cell growth in a cell viability assay.
# LB2518-MEL = type: functional, cell-based; details: Homo sapiens;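 further: growth inhibition of human LB2518-MEL cells, measured with a cell viability assay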
# Description: SANGER: Inhibition of human LB2518-MEL cell growth in a cell viability assay.
# MHH-PREB-1 = type: functional, cell-based; details: Homo sapiens;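 further: cell viability assay measuring inhibition of proliferation of human MHH-PREB-1 cells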
# Description: SANGER: Inhibition of human MHH-PREB-1 cell growth in a cell viability assay.
# MMAC-SF = type: functional, cell-based; details: Homo sapiens;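 further: growth inhibition of human MMAC-SF cells, read out with a cell viability assay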
# Description: SANGER: Inhibition of human MMAC-SF cell growth in a cell viability assay.
# MOLT-16 = type: functional, cell-based; details: Homo sapiens;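 further: growth inhibition of human MOLT-16 cells, read out with a cell viability assay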
# Description: SANGER: Inhibition of human MOLT-16 cell growth in a cell viability assay.
# MeWo = type: functional, cell-based; details: Homo sapiens;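 further: growth inhibition of MeWo cells, determined by a cell viability readout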
# Description: SANGER: Inhibition of human Mewo cell growth in a cell viability assay.
# NB13 = type: functional, cell-based; details: Homo sapiens;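 further: cell viability readout measuring growth inhibition of human NB13 cells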
# Description: SANGER: Inhibition of human NB13 cell growth in a cell viability assay.
# NB69 = type: functional, cell-based; details: Homo sapiens;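 further: growth inhibition of NB69 cells, determined by a cell viability assay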
# Description: SANGER: Inhibition of human NB69 cell growth in a cell viability assay.
# NCI-H1304 = type: functional, cell-based; details: Homo sapiens;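 further: growth inhibition of the cancer cell line, measured in a cell viability assay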
# Description: SANGER: Inhibition of human NCI-H1304 cell growth in a cell viability assay.
# NCI-H1395 = type: functional, cell-based; details: Homo sapiens;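 further: cell viability assay read-out quantifying reduced proliferation of human NCI-H1395 cells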
# Description: SANGER: Inhibition of human NCI-H1395 cell growth in a cell viability assay.
# NCI-H1563 = type: functional, cell-based; details: Homo sapiens;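 further: growth inhibition of human NCI-H1563 cells, read out with a cell viability assay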
# Description: SANGER: Inhibition of human NCI-H1563 cell growth in a cell viability assay.
# NCI-H1581 = type: functional, cell-based; details: Homo sapiens;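 further: cell growth inhibition read out by a viability assay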
# Description: SANGER: Inhibition of human NCI-H1581 cell growth in a cell viability assay.
# NCI-H1650 = type: functional, cell-based; details: Homo sapiens;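 further: growth inhibition of human NCI-H1650 cells measured by a cell viability assay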
# Description: SANGER: Inhibition of human NCI-H1650 cell growth in a cell viability assay.
# NCI-H1693 = type: functional, cell-based; details: Homo sapiens;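 further: growth inhibition of the human cell line, read out with a cell viability assay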
# Description: SANGER: Inhibition of human NCI-H1693 cell growth in a cell viability assay.
# NCI-H1838 = type: functional, cell-based; details: Homo sapiens;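 further: growth inhibition of NCI-H1838 cells, determined with a cell viability readout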
# Description: SANGER: Inhibition of human NCI-H1838 cell growth in a cell viability assay.
# OMC-1 = type: functional, cell-based; details: Homo sapiens;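 further: growth inhibition of the OMC-1 cell line, measured by a cell viability assay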
# Description: SANGER: Inhibition of human OMC-1 cell growth in a cell viability assay.
# RCC10RGB = type: functional, cell-based; details: Homo sapiens;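 further: growth inhibition of human RCC10RGB cells, read out by a cell viability assay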
# Description: SANGER: Inhibition of human RCC10RGB cell growth in a cell viability assay.
# RPMI-8226 = type: functional, cell-based; details: Homo sapiens
# Description: SANGER: Inhibition of human RPMI-8226 cell growth in a cell viability assay.
# RPMI-8866 = type: functional, cell-based; details: Homo sapiens
# Description: SANGER: Inhibition of human RPMI-8866 cell growth in a cell viability assay.
# Ramos-2G6-4C10 = type: functional, cell-based; details: Homo sapiens;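 further: growth inhibition of the cell line, measured by a cell viability read-out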
# Description: SANGER: Inhibition of human Ramos-2G6-4C10 cell growth in a cell viability assay.
# SCH = type: functional, cell-based; details: Homo sapiens;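 further: growth inhibition of human SCH cells, read out in a cell viability assay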
# Description: SANGER: Inhibition of human SCH cell growth in a cell viability assay.
# SF-539 = type: functional, cell-based; details: Homo sapiens;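 further: Read-out is a cell viability assay, with IC50 reflecting inhibition of cell growth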
# Description: SANGER: Inhibition of human SF539 cell growth in a cell viability assay.
# SK-LMS-1 = type: functional, cell-based; details: Homo sapiens;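 further: growth inhibition of human SK-LMS-1 cells, read out with a cell viability assay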
# Description: SANGER: Inhibition of human SK-LMS-1 cell growth in a cell viability assay.
# SK-MEL-1 = type: functional, cell-based; details: Homo sapiens;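 further: growth inhibition of human SK-MEL-1 cells, read out by a cell viability assay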
# Description: SANGER: Inhibition of human SK-MEL-1 cell growth in a cell viability assay.
# SK-N-DZ = type: functional, cell-based; details: Homo sapiens;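 further: growth inhibition of the cancer cell line, read out through a viability assay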
# Description: SANGER: Inhibition of human SK-N-DZ cell growth in a cell viability assay.
# SK-NEP-1 = type: functional, cell-based; details: Homo sapiens;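 further: growth inhibition of human SK-NEP-1 cells, read out by a cell viability assay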
# Description: SANGER: Inhibition of human SK-NEP-1 cell growth in a cell viability assay.
# SK-UT-1 = type: functional, cell-based; details: Homo sapiens;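 further: growth inhibition of SK-UT-1 cells, measured by a cell viability assay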
# Description: SANGER: Inhibition of human SK-UT-1 cell growth in a cell viability assay.
# SW-620 = type: functional, cell-based; details: Homo sapiens;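 further: growth inhibition of human SW-620 cells, measured by a cell viability assay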
# Description: SANGER: Inhibition of human SW620 cell growth in a cell viability assay.
# 697 = type: functional, cell-based; details: Homo sapiens
# Description: SANGER: Inhibition of human 697 cell growth in a cell viability assay.
# A4-Fuk = type: functional, cell-based; details: Homo sapiens;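 further: growth inhibition of A4-Fuk cells, read out by a cell viability assay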
# Description: SANGER: Inhibition of human A4-Fuk cell growth in a cell viability assay.
# A498 = type: functional, cell-based; details: Homo sapiens;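 further: growth inhibition of human A498 cells, read out with a cell viability assay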
# Description: SANGER: Inhibition of human A498 cell growth in a cell viability assay.
# ATN-1 = type: functional, cell-based; details: Homo sapiens
# Description: SANGER: Inhibition of human ATN-1 cell growth in a cell viability assay.
# BB65-RCC = type: functional, cell-based; details: Homo sapiens
# Description: SANGER: Inhibition of human BB65-RCC cell growth in a cell viability assay.
# BV-173 = type: functional, cell-based; details: Homo sapiens
# Description: SANGER: Inhibition of human BV-173 cell growth in a cell viability assay.
# Becker = type: functional, cell-based; details: Homo sapiens
# Description: SANGER: Inhibition of human Becker cell growth in a cell viability assay.
# CAL-12T = type: functional, cell-based, Homo sapiens; details: Homo sapiens, CAL-12T
# Description: SANGER: Inhibition of human CAL-12T cell growth in a cell viability assay.
# TE-8 = type: functional, cell-based; details: Homo sapiens
# Description: SANGER: Inhibition of human TE-8 cell growth in a cell viability assay.
# TGBC1TKB = type: functional, cell-based; details: Homo sapiens
# Description: SANGER: Inhibition of human TGBC1TKB cell growth in a cell viability assay.
# TGBC24TKB = type: functional, cell-based; details: Homo sapiens
# Description: SANGER: Inhibition of human TGBC24TKB cell growth in a cell viability assay.
smiles,measurement,setting,value
CCCS(=O)(=O)Nc1ccc(F)c(C(=O)c2c[nH]c3ncc(Cl)cc23)c1F [PLX-4720],IC50,D-502MG,> 10 µM
same,IC50,DJM-1,> 10 µM
same,IC50,EKVX,> 10 µM
same,IC50,ES4,> 10 µM
same,IC50,ES5,6.15 µM
same,IC50,ES6,> 10 µM
same,IC50,EW-13,> 10 µM
same,IC50,GI-1,> 10 µM
same,IC50,HAL-01,> 10 µM
same,IC50,HCC1187,> 10 µM
same,IC50,HCC2218,0.878 µM
same,IC50,HDLM-2,> 10 µM
same,IC50,HOP-62,> 10 µM
same,IC50,HOS,> 10 µM
same,IC50,JVM-2,> 10 µM
same,IC50,JVM-3,9.57 µM
same,IC50,KARPAS-299,> 10 µM
same,IC50,KARPAS-45,2.05 µM
same,IC50,KG-1,4.74 µM
same,IC50,KM-H2,> 10 µM
same,IC50,KNS-81-FD,> 10 µM
same,IC50,LB1047-RCC,> 10 µM
same,IC50,LB2518-MEL,> 10 µM
same,IC50,MHH-PREB-1,> 10 µM
same,IC50,MMAC-SF,0.686 µM
same,IC50,MOLT-16,> 10 µM
same,IC50,MeWo,> 10 µM
same,IC50,NB13,4.49 µM
same,IC50,NB69,> 10 µM
same,IC50,NCI-H1304,> 10 µM
same,IC50,NCI-H1395,> 10 µM
same,IC50,NCI-H1563,> 10 µM
same,IC50,NCI-H1581,> 10 µM
same,IC50,NCI-H1650,> 10 µM
same,IC50,NCI-H1693,> 10 µM
same,IC50,NCI-H1838,> 10 µM
same,IC50,OMC-1,> 10 µM
same,IC50,RCC10RGB,> 10 µM
same,IC50,RPMI-8226,> 10 µM
same,IC50,RPMI-8866,> 10 µM
same,IC50,Ramos-2G6-4C10,> 10 µM
same,IC50,SCH,> 10 µM
same,IC50,SF-539,> 10 µM
same,IC50,SK-LMS-1,> 10 µM
same,IC50,SK-MEL-1,> 10 µM
same,IC50,SK-N-DZ,> 10 µM
same,IC50,SK-NEP-1,> 10 µM
same,IC50,SK-UT-1,> 10 µM
same,IC50,SW-620,> 10 µM
same,IC50,697,3.55 µM
same,IC50,A4-Fuk,> 10 µM
same,IC50,A498,> 10 µM
same,IC50,ATN-1,> 10 µM
same,IC50,BB65-RCC,> 10 µM
same,IC50,BV-173,0.796 µM
same,IC50,Becker,> 10 µM
same,IC50,CAL-12T,> 10 µM
same,IC50,TE-8,> 10 µM
same,IC50,TGBC1TKB,> 10 µM
same,IC50,TGBC24TKB,> 10 µM

# Reference: ChEMBL document CHEMBL1201861, “Genomics of Drug Sensitity in Cancer screening data, Wellcome Trust Sanger Institute”
